Test results published in ChEMBL document CHEMBL1128990, “Design, synthesis, and characterization of dipeptide isostere containing cis-epoxide for the irreversible inactivation of HIV protease” (Bioorg Med Chem Lett, 1996).

Assays:
[1] = molecular target: Human immunodeficiency virus type 1 protease (Human immunodeficiency virus 1, UniProt Q72874); assay: Inhibitory activity against HIV protease was determined
[2] = molecular target: Human immunodeficiency virus type 1 protease (Human immunodeficiency virus 1) (UniProt Q72874); assay: Kinetic parameter (kina) value was determined for the compound
Cathepsin D = Cathepsin D (Homo sapiens, UniProt P07339); assay: Inhibitory activity against human cathepsin D was determined
Cathepsin D, sequence (P07339 65-162 limits assumed): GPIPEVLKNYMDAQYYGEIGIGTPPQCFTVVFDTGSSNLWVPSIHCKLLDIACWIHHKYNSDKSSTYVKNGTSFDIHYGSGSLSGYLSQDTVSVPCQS
Cathepsin D, sequence (P07339 169-412 limits assumed): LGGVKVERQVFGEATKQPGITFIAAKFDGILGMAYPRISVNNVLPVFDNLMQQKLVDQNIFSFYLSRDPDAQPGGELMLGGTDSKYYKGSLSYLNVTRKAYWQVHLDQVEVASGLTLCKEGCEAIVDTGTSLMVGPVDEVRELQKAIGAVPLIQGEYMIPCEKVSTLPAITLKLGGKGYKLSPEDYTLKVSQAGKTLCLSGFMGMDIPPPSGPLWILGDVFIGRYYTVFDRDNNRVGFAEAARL

SMILES | Ki [1] [µM] | Kina [2] [min⁻¹] | IC50 (Cathepsin D) [µM]
CCC(C)C(NC(=O)C[C@H]1O[C@H]1[C@H](Cc1ccccc1)NC(=O)C(CC(N)=O)NC(=O)c1ccc2ccccc2n1)C(=O)O (mixture of isomers) | 0.018 | 0.22 | 
CC(C)C(NC(=O)C[C@@H]1O[C@@H]1[C@H](Cc1ccccc1)NC(=O)C(CC(N)=O)NC(=O)c1ccc2ccccc2n1)C(C)C (stereo partly specified) | 0.001 | 0.2 | 12.5
CC(C)C(NC(=O)C[C@H]1O[C@H]1[C@H](Cc1ccccc1)NC(=O)OCc1ccccc1)C(=O)O (stereo partly specified) | 1.32 | 1.48 | 
CC(C)C(NC(=O)C[C@H]1O[C@@H]1[C@H](Cc1ccccc1)NC(=O)OCc1ccccc1)C(=O)O (stereo partly specified) | 200 | 0.2 | 
CC(C)C(NC(=O)[C@@H]1O[C@@H]1[C@H](Cc1ccccc1)NC(=O)OCc1ccccc1)C(=O)O (stereo partly specified) | > 10000 | 0.02 | 
